“Also recorded” adds a separate entry of the source.
Assays:
human NET = human NET (Homo sapiens (Human), UniProt P23975); assay: Novascreen Norepinephrine, Transporter NET (h) binding, recombinant CHO cells, [3H]-Nisoxetine
Excerpt: (§1) The NET and SERT binding may be assayed to determine if the compounds of the disclosure specifically bind to NET or SERT. An exemplary procedure for assaying NET binding may be found in Raisman et al., Eur. Jrnl. Pharmacol. (1982) 78:345-351 and in Langer et al., Eur. Jrnl. Pharmac. (1981) 72:423. An exemplary procedure for assaying SERT binding may be found in D'Amato et al., Jrnl. Pharmcacol. & Exp. Ther. (1987) 242:364-371 and in Brown et al., Eur. Jrnl. Pharmac. (1986) 123:161-165. The contents of each of these references are incorporated by reference in their entirety.
(§2) The binding affinity of the compounds of the current disclosure is measured using a Novascreen against rodent NET, human NET and human SERT. Duloxetine is used as a positive control. Details of the Novascreen may be found in the following: • http://www.perkinelmer.com/Catalog/Product/ID/100-0123, • http://www.perkinelmer.com/Catalog/Product/ID/100-0048, • http://www.perkinelmer.com/Catalog/Product/ID/100-0146, and • http://www.perkinelmer.com/Catalog/Product/ID/100-0099.
For the binding affinity of the compounds of the current disclosure against NET, the following paramenters are used: • Assay Type: Binding • Species: Rat • Origin: Forebrain • Ligand: [3H]-Nisoxetine • Ligand [M]: 1.00E-09 • Kd (Binding Affinity): 9.00E-10 • Bmax: 10.5 fmol/mg tissue (wet weight) • Method: Radioactivity • Measurement: DPM • Assay Name: Norepinephrine, Transporter NET (h) • Assay Type: Binding • Species: Human • Origin: Recombinant/CHO cells • Ligand: [3H]-Nisoxetine • Ligand [M]: 1.00E-09 • Kd (Binding Affinity): 3.00E-09 • Bmax: 10 pmol/mg protein • Method: Radioactivity • Measurement: DPM

human SERT = human SERT (Homo sapiens (Human), UniProt P31645); assay: Novascreen Serotonin, Transporter SERT (h) binding, platelets, [3H]Citalopram, N-Methyl
Excerpt: as §1, §2
For the binding affinity of the compounds of the current disclosure for SERT, the following paramenters are used: • Assay Name: Serotonin, Transporter SERT (h) • Assay Type: Binding • Species: Human • Origin: Platelets • Ligand: [3H]Citalopram, N-Methyl • Ligand [M]: 7.00E-10 • Kd (Binding Affinity): 2.50E-09 • Bmax: 425 fmol/mg protein • Method: Radioactivity • Measurement: DPM

naloxone-induced flush = assay: Morphine-dependent rat model of hot flashes (naloxone-induced flush, tail skin temperature); format: in vivo; details: 30 mg/kg p.o., FIG. 1
Excerpt: Morphine-dependent Rat Model: The effectiveness of the compounds of the present disclosure to reduce hot flashes may be evaluated by measuring its ability to reduce morphine-induced rise in TST. Ovariectomized rats may be subcutaneously injected with a vehicle (sterile water) once daily for 8 days. On day-4, two tablets of slow-release morphine may be implanted subcutaneously in the dorsal scapular region of the rats to induce morphine dependence. On day-5 and -6, morphine withdrawal may be induced by subcutaneous administration of 1.0 mg/Kg of naloxone, a general opioid antagonist. […] Ketamine (40 mg/Kg) may be injected after test compound to induce sedation so as to avoid temperature fluctuation due to stress associated with restriction of their movement and attachment of thermistor probe to the their tails. All drug- related effects may be compared to a vehicle control group which also receives ketamine. TST may be monitored continuously for 35 minutes. The average TST measured 25, 30 and 35 minutes prior to naloxone injection may be used to establish a baseline temperature. Hot flash reduction may be determined by evaluating the statistical differences between the baseline temperature and 15 minutes after naloxone treatment when the change in TST may be observed to be maximum.

human SERT, sequence (P31645 whole entry): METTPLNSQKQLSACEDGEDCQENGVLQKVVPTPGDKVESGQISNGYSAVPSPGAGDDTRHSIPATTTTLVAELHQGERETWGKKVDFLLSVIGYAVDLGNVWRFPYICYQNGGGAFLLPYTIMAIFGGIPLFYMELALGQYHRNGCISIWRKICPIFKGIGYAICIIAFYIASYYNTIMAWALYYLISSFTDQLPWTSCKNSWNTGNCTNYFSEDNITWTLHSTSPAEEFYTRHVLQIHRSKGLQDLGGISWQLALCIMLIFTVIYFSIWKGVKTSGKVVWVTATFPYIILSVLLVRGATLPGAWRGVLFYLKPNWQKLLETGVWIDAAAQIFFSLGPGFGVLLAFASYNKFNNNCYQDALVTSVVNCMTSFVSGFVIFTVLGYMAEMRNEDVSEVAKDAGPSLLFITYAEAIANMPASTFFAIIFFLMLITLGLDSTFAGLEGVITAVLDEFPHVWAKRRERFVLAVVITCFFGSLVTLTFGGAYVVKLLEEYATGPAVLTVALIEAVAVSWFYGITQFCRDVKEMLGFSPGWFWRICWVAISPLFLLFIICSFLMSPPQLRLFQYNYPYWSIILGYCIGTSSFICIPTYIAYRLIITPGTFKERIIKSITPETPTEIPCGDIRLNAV
human NET, sequence (P23975 whole entry): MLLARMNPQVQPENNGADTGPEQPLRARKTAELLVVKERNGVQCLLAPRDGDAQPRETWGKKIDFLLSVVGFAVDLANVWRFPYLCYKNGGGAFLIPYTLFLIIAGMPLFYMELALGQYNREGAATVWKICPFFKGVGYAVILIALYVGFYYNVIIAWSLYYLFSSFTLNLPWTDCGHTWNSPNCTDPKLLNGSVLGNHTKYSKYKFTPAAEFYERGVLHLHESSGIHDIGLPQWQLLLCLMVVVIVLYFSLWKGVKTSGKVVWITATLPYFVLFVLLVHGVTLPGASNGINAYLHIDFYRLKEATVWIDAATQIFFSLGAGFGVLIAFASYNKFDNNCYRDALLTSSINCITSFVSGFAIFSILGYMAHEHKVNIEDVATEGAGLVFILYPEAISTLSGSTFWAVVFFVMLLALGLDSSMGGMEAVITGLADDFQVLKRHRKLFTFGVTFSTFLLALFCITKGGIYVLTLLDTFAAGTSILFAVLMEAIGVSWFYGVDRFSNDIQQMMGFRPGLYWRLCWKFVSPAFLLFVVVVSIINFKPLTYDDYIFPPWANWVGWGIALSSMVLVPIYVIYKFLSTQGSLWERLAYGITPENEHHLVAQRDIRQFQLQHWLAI

Row | SMILES | Ki (human NET) [nM] | Ki (human SERT) [nM] | reduction of naloxone-induced flush (naloxone-induced flush)
1 | CCOc1ncccc1O[C@H](CCNC)c1ccccc1 [Example 3, (R)-3-(2-Ethoxypyridin-3-yloxy)-N-methyl-3-phenylpropan-1-amine] | 4.2 | 318 | effective in reducing naloxone-induced flush; also recorded: effective in reducing naloxone-inducted flush
2 | CCNCC[C@@H](Oc1cccnc1OCC)c1ccccc1 [Compound 5, (R)-3-(2-ethoxypyridin-3-yloxy)-N-ethyl-3-phenylpropan-1-amine] | 37.3 | 579 | –
3 | CNCC[C@@H](Oc1cccnc1OCCO)c1ccccc1 [Example 1, (R)-2-(3-(3-(Methylamino)-1-phenylpropoxy)pyridin-2-yloxy)ethanol] | 39 | – | –
4 | CCNCC[C@@H](Oc1cccnc1OC)c1ccccc1 [Compound 4, (R)-N-ethyl-3-(2-methoxypyridin-3-yloxy)-3-phenylpropan-1-amine] | 81.4 | 240 | –
5 | CCOc1ncccc1O[C@H](CCN)c1ccccc1 [Example 2, (R)-3-Phenyl-3-(2-ethoxypyridin-3-yloxy)propan-1-amine] | 69 | – | –

Reference: US10188758B2, “Organic compounds” (INTRA-CELLULAR THERAPIES, INC., priority 2015, dated 2019)
